Test system: myeloproliferative diseases
Experiment: Treatment of patients with myeloproliferative diseases
Type: in vivo, human
Settings: for clinical outcome of therapy (spleen, blood counts, constitutional symptoms): therapy with the JAK or HDAC inhibitor, patients
Procedure: 4-(Amino)-2-(2,6-dioxo(3-piperidyl))-isoindoline-1,3-dione (Pomalidomide or Actimid™) is orally administered to patients with myeloproliferative diseases in an amount of 0.1 to 10 mg per day in combination with prednisone, JAK1 inhibitor (e.g., INCB018424), JAK2 inhibitor (e.g., SB11518, XL019, TG101348, and INCB018424), FLT3 inhibitor (e.g., TG101348), BCL2 inhibitor (e.g., GX15-070MS) and/or HDAC inhibitor (e.g., ITF2357).

Structure (SMILES)	clinical outcome of therapy (spleen, blood counts, constitutional symptoms)	efficacy in treating myeloproliferative diseases (oral, 0.1 to 10 mg per day, in combination with prednisone, JAK1, JAK2, FLT3, BCL2 and/or HDAC inhibitor)
CCN(CC)Cc1ccc2cc(COC(=O)Nc3ccc(C(=O)NO)cc3)ccc2c1 [ITF2357]	improvement in constitutional symptoms, spleen size and some hematologic responses	–
N#CC[C@H](C1CCCC1)n1cc(-c2ncnc3[nH]ccc23)cn1 [INCB018424]	dramatic spleen shrinkage and improvement in constitutional symptoms	–
O=C(Nc1ccc(-c2ccnc(Nc3ccc(N4CCOCC4)cc3)n2)cc1)C1CCCN1 (stereo not shown) [XL019]	reductions in splenomegaly and leukocytosis, stabilization of hemoglobin counts, improvements in blast counts, and resolution or improvement in generalized constitutional symptoms	–
Nc1cccc2c1C(=O)N(C1CCC(=O)NC1=O)C2=O (stereo not shown) [4-(Amino)-2-(2,6-dioxo(3-piperidyl))-isoindoline-1,3-dione]	–	effective in treating myeloproliferative diseases

— patent publication US8034831B2, “Methods for the treatment and management of myeloproliferative diseases using 4-(amino)-2-(2,6-Dioxo(3-piperidyl)-isoindoline-1,3-dione in combination with other therapies” (Celgene Corporation, priority 2002, dated 2011)
